{"source": "patent US20250326792A1", "about": "“A FORMULATION FOR TREATMENT OF PIGMENTARY DISORDERS” (priority 2022, published 2025)", "key": {"[1]": {"system": "Tyrosinase", "assay": "Tyrosinase activity assay (L-DOPA) in B16F10 cells", "assay_type": "cell-based", "details": "for % increase in tyrosinase activity compared to control / Change in tyrosinase activity: TYROSINASE ACTIVITY table", "protocol": "(§1) Culture and maintenance of cell lines: B16F10 cells were cultured in RPMI containing 10% fetal bovine serum, 100 units per millilitre (U/mL) penicillin, 0.1 mg/mL streptomycin, and 0.25 microgram per millilitre (μg/mL) amphotericin B at 37 degrees Celsius in a humidified 95% air/5% CO2 incubator. Drug treatment was done 24 hours after seeding. Cells were harvested 48 hours later and melanin content and tyrosinase activity determined in triplicate. NHEM cells were cultured in DMEM containing 10% fetal bovine serum, 100 units per milliliter (U/mL) penicillin, 0.1 mg/mL streptomycin, and 0.25 microgram per millilitre (μg/mL) amphotericin B at 37 degrees Celsius in a humidified 95% air/5% CO2 incubator. Drug treatment was done 24 hours after seeding. Cells were harvested 48 hours later and melanin content and tyrosinase activity determined in triplicate.\n(§2) IS103 was dissolved in water for injection or DMSO to prepare stock solution of about 50 mg/ml. The stock solution was used for preparation of subsequent dilutions in solvent to achieve working dilutions for treatment ranging 0.1 μg/ml to 1000 μg/ml.\nTyrosinase activity was determined using L-DOPA as a substrate. Briefly, B16F10 and NHEM cells were seeded in a 6-well plate (2×10^4 cells/well) and incubated for overnight. The cells were then treated with or without the test compounds for 46 hours and were washed twice with ice cold PBS and extracted by sonication in 100 μl of 0.1M Tris-HCl buffer (pH 7.2) containing 1% Nonidet P-40, 0.01% SDS, 100 μM phenyl methyl sulfonyl fluoride, and 1 μg/ml aprotinin and then centrifuged at 10,000 g for about 10 minutes at 4° C. The supernatants collected were used for enzyme assay and its protein content was estimated by method of Bradford using BSA as standard. Samples of cell extract supernatant were incubated in duplicate for 1 hour at 37° C. in 1 ml of 0.1M sodium phosphate buffer (pH 7.4) containing 0.1% L-DOPA. The absorbance was then monitored at 450 nm and compared with purified mushroom tyrosinase (Sigma). The standard curve was prepared limiting linearity within the range of experimental value."}, "[2]": {"system": "B16F10 cells", "assay": "Melanin content assay in B16F10 cells", "assay_type": "cell-based", "details": "for % increase in melanin content compared to control / Fold change in melanin content: B16F10 CELLS", "protocol": "as §1, §2\nCells were seeded in a 6-well plate (2×10^4 cells/well) and incubated overnight to allow the cells to adhere. After treating with various test samples for 4 or 5 days, cells were washed with phosphate-buffered saline (PBS), trypsinized, counted, and then lysed in 1 N NaOH at 100° C. for about 1 hour. The melanin content in each sample was calculated by comparison of absorbance at 400 nm of unknown samples with a standard curve obtained using synthetic melanin. […] B16F10 and NHEM cells were treated with different concentrations of IS103 ranging from 0.1 to 1000 μg/ml and analysed melanin contents in cells. […] To assess the toxicity of the IS103 peptide, cell viability was analyzed by MTT assay."}, "[3]": {"system": "B16F10 cells", "assay": "Cell viability (XTT assay) in B16F10 cells", "assay_type": "cell-based", "details": "1000 μg/ml for about 48 hours", "protocol": "Culture and maintenance of cell lines: B16F10 cells were cultured in RPMI containing 10% fetal bovine serum, 100 units per millilitre (U/mL) penicillin, 0.1 mg/mL streptomycin, and 0.25 microgram per millilitre (μg/mL) amphotericin B at 37 degrees Celsius in a humidified 95% air/5% CO2 incubator. Drug treatment was done 24 hours after seeding. Cells were harvested 48 hours later and melanin content and tyrosinase activity determined in triplicate. […] […]\nB16F10 and NHEM cells were sub-cultured into 96-well culture plates at a density of 1×10^4 cells/well in 100 μL medium and after about 24 hours of incubation, the medium was discarded and replaced with 100 μL of a suitable medium (RPMI for B16F10 and DMEM for NHEM with 1% FBS) for starvation and then treated in the presence or absence of various concentrations of test compound and positive controls (IBMX and α-MSH). […] At the end of the incubation, about 50 μL of XTT test solution prepared by mixing about 5 mL of XTT-labeling reagent and about 100 μL of electron coupling reagent is added to each well and after about 4 hours of incubation at 37° C. and a about 5% CO2 incubator, the absorbance was measured on an ELISA reader at a test wavelength of 490 nm."}, "[4]": {"assay": "Solubility of synthetic peptide IS103", "assay_type": "physicochemical"}, "[5]": {"details": "B16F10 cells, different concentrations, about 48 hours"}}, "note": "PHPP = 3-Phenylpyrazolo[3,4-d]pyrimidine (N-terminal cap)"}
{"substance": "PHPP-Tyr-Arg-Ser-Arg-Lys-Tyr-Ser-Ser-Trp-Tyr-NH2 ({PHPP}-YRSRKYSSWY-NH2) [IS103]", "values": [{"measurement": "increase in Tyrosinase activity when compared to control", "setting": "[1]; B16F10 CELLS, 250 μg/mL", "result": 55.33, "unit": "%"}, {"measurement": "effect on tyrosinase activity (FIG. 6)", "setting": "[1]; [5]", "result": "increased tyrosinase activity"}, {"measurement": "% increase in tyrosinase activity compared to control", "setting": "[1]; B16F10 CELLS, 0.1 μg/mL", "result": 0, "unit": "%"}, {"measurement": "Change in tyrosinase activity", "setting": "[1]; B16F10 CELLS, 0.1 μg/mL", "result": "15.0 ± 1.60"}, {"measurement": "% increase in tyrosinase activity compared to control", "setting": "[1]; B16F10 CELLS, 1 μg/mL", "result": 3, "unit": "%"}, {"measurement": "Change in tyrosinase activity", "setting": "[1]; B16F10 CELLS, 1 μg/mL", "result": "18.0 ± 2.20"}, {"measurement": "% increase in tyrosinase activity compared to control", "setting": "[1]; B16F10 CELLS, 10 μg/mL", "result": 10.33, "unit": "%"}, {"measurement": "Change in tyrosinase activity", "setting": "[1]; B16F10 CELLS, 10 μg/mL", "result": "25.3 ± 1.20"}, {"measurement": "% increase in tyrosinase activity compared to control", "setting": "[1]; B16F10 CELLS, 50 μg/mL", "result": 24, "unit": "%"}, {"measurement": "Change in tyrosinase activity", "setting": "[1]; B16F10 CELLS, 50 μg/mL", "result": "39.0 ± 2.20"}, {"measurement": "% increase in tyrosinase activity compared to control", "setting": "[1]; B16F10 CELLS, 100 μg/mL", "result": 42.33, "unit": "%"}, {"measurement": "Change in tyrosinase activity", "setting": "[1]; B16F10 CELLS, 100 μg/mL", "result": "57.3 ± 4.20"}, {"measurement": "% increase in tyrosinase activity compared to control", "setting": "[1]; B16F10 CELLS, 250 μg/mL", "result": 55.33, "unit": "%"}, {"measurement": "Change in tyrosinase activity", "setting": "[1]; B16F10 CELLS, 250 μg/mL", "result": "70.3 ± 1.70"}, {"measurement": "% increase in tyrosinase activity compared to control", "setting": "[1]; B16F10 CELLS, 500 μg/mL", "result": 62, "unit": "%"}, {"measurement": "Change in tyrosinase activity", "setting": "[1]; B16F10 CELLS, 500 μg/mL", "result": "77.0 ± 3.00"}, {"measurement": "% increase in tyrosinase activity compared to control", "setting": "[1]; B16F10 CELLS, 1000 μg/mL", "result": 60.33, "unit": "%"}, {"measurement": "Change in tyrosinase activity", "setting": "[1]; B16F10 CELLS, 1000 μg/mL", "result": "75.3 ± 2.50"}, {"measurement": "% increase in melanin content compared to control", "setting": "[2]; 0.1 μg/mL", "result": 0, "unit": "%"}, {"measurement": "Fold change in melanin content", "setting": "[2]; 0.1 μg/mL", "result": "1.0 ± 0.20"}, {"measurement": "% increase in melanin content compared to control", "setting": "[2]; 1 μg/mL", "result": 0, "unit": "%"}, {"measurement": "Fold change in melanin content", "setting": "[2]; 1 μg/mL", "result": "1.0 ± 0.30"}, {"measurement": "% increase in melanin content compared to control", "setting": "[2]; 10 μg/mL", "result": 20, "unit": "%"}, {"measurement": "Fold change in melanin content", "setting": "[2]; 10 μg/mL", "result": "1.2 ± 0.10"}, {"measurement": "% increase in melanin content compared to control", "setting": "[2]; 50 μg/mL", "result": 60, "unit": "%"}, {"measurement": "Fold change in melanin content", "setting": "[2]; 50 μg/mL", "result": "1.6 ± 0.20"}, {"measurement": "% increase in melanin content compared to control", "setting": "[2]; 100 μg/mL", "result": 125, "unit": "%"}, {"measurement": "Fold change in melanin content", "setting": "[2]; 100 μg/mL", "result": "2.3 ± 0.30"}, {"measurement": "% increase in melanin content compared to control", "setting": "[2]; 250 μg/mL", "result": 180, "unit": "%"}, {"measurement": "Fold change in melanin content", "setting": "[2]; 250 μg/mL", "result": "2.8 ± 0.20"}, {"measurement": "% increase in melanin content compared to control", "setting": "[2]; 500 μg/mL", "result": 190, "unit": "%"}, {"measurement": "Fold change in melanin content", "setting": "[2]; 500 μg/mL", "result": "2.9 ± 0.10"}, {"measurement": "% increase in melanin content compared to control", "setting": "[2]; 1000 μg/mL", "result": 176, "unit": "%"}, {"measurement": "Fold change in melanin content", "setting": "[2]; 1000 μg/mL", "result": "2.8 ± 0.30"}, {"measurement": "concentration sufficient to significantly enhance melanin synthesis", "setting": "[2]; B16F10 and NHEM cells, not distinguished", "result": 10, "unit": "µg/mL"}, {"measurement": "effect on melanin synthesis (FIG. 4)", "setting": "[2]; [5]", "result": "enhanced melanin synthesis in a dose-dependent manner"}, {"measurement": "effect on cell viability", "setting": "[3]", "result": "did not exert any significant effect on cell viability"}, {"measurement": "Solubility", "setting": "[4]", "result": "soluble in water"}]}
